The numbers were not newly measured in patent publication US8048872B2, “Treatment of hyperproliferative diseases with vinca alkaloid N-oxide and analogs” (Stat of Oregon Acting by and Through The Oregon State Board …, priority 2006, dated 2011), which cites them from elsewhere.

Like-named read-outs stand apart in the source and are kept apart here.

For this series the following is noted: cited from earlier work.
The mark [1] stands for this setting: melanoma, 200 mg/m^2/d PO days 1-5, every 28 days, Grade III-IV.
Setting [2] is: melanoma, 200 mg/m^2/d PO days 1-5, every 28 days.

Consider `CC(=O)O[C@@]12CO[C@@H]1C[C@H](O)[C@@]1(C)C(=O)[C@H](O)C3=C(C)[C@@H](OC(=O)[C@H](O)[C@@H](NC(=O)OC(C)(C)C)c4ccccc4)C[C@@](O)([C@@H](OC(=O)c4ccccc4)[C@H]21)C3(C)C` [Docetaxel], for which, where the note is “Grade III-IV”, the Alopecia entry is “Alopecia 13%”, the Asthenia entry is on record as “Asthenia 16%”, the Diarrhea result is reported as “Diarrhea 8%” and the Fatigue/Asthenia result is listed as “Fatigue/Asthenia 10%”. For the same molecule, for the setting “Grade III-IV”, the “Febrile Neutropenia” value is recorded as “Febrile Neutropenia 33%”, the “Hypersensitivity Reaction” value is given as “Reactions 3%”, the “Leukopenia/Neutropenia Toxicity” value is “Grade III-IV 93%” and the Nausea entry was “Nausea 5%”. Under “Grade III-IV”, the Nausea/Emesis entry was “Nausea/Emesis 10%”, the Neuropathy result is reported as “Neuropathy 3%”, the Neurosensory result was “Neurosensory 5%” and the “Neutropenic Fever” value was “Neutropenic Fever 9%”. Further, under “Grade III-IV”, the “Severe Fluid Retention” value is 8%, the Stomatitis result is “Stomatitis 9%”, the Thrombocytopenia entry is on record as “Thrombocytopenia 4%” and the Vomiting entry is listed as “Vomiting 3%”. Besides, where the note is “Grade III”, the Granulocytopenia result is “Grade III 6%”, the Leukopenia entry is recorded as “Grade III 8%” and the Thrombocytopenia result is recorded as “(Grade III) 6%”. For the same molecule, the Granulocytopenia entry (Grade IV) is “Grade IV 72%”. Also, the “Neutropenic Infection” value (human, in vivo, iv) is on record as “(Grade III-IV) 11%”.

For “gemtuzumab: Mylotarg, Wyeth-Ayerst [reference compound]”, under “Grade III-IV”, the “Anemia Grade III-IV” value is listed as 47%, the Chills result was “Chills 13%”, the Dyspnea result is recorded as “Dyspnea 9%” and the Fever result is recorded as “Fever 15%”. For the same molecule, where the note is “Grade III-IV”, the Hyperbilirubinemia entry was “Hyperbilirubinemia 23%”, the Hyperglycemia entry is listed as “Hyperglycemia 12%”, the Leukopenia is listed as 96% and the Nausea entry is reported as “Nausea 9%”. Moreover, where the note is “Grade III-IV”, the Neutropenia is reported as 98%, the “Neutropenic Fever” value was “Neutropenic Fever 7%”, the Pneumonia result is listed as “Pneumonia 7%” and the Sepsis result was “Sepsis 16%”. For the same molecule, the Thrombocytopenia entry (Grade III-IV) is on record as “Thrombocytopenia 99%”. The “patients with grade III or IV pneumonia” value (acute myelogenous patients, 9 mg/m^2 IV, two doses 14 days apart) is 7%.

With `COc1cccc2c1C(=O)c1c(O)c3c(c(O)c1C2=O)C[C@@](O)(C(=O)CO)C[C@@H]3O[C@H]1C[C@H](N)[C@H](O)[C@H](C)O1` [Doxorubicin], for the setting “human, in vivo, iv”, the Cardiotoxicity entry is listed as “Cardiotoxicity 1%”, the Gastrointestinal result was “Gastrointestinal 3%”, the Infection entry is on record as “Infection 3%” and the “Leukopenia/Neutropenia Toxicity” value is “Grade III-IV 8%”. For the same molecule, where the note is “human, in vivo, iv”, the “Leukopenia/Neutropenia Toxicity Grade III-IV” value was “Grade III-IV 51%”, the “Leukopenia/Neutropenia Toxicity Grade IV” value was “Grade IV 21%”, the Mucositis entry is on record as “Mucositis 6%” and the Nausea/Vomiting entry is given as “Nausea/Vomiting 13%”. The Thrombocytopenia entry (human, in vivo, iv) was “Thrombocytopenia 2%”.

For the molecule `CN(C)c1nc(N(C)C)nc(N(C)C)n1` [Altretamine], for the setting “human, in vivo, iv”, the “Anemia Grade III-IV” value is “Anemia Grade III-IV 2%”, the Fatigue result is recorded as “Fatigue 9%”, the Nausea result is listed as “Nausea 14%” and the Neurologic result is “Neurologic 2%”. Also, the Vomiting result (human, in vivo, iv) is “Vomiting 12%”.

As for `O=NN(CCCl)C(=O)NCCCl` [BCNU (carmustine)], the Nausea/Vomiting result (Grade III-IV) is listed as “Nausea/Vomiting 5%”. Besides, the Thrombocytopenia entry (Grade III-IV) is given as “Thrombocytopenia 21%”. Also, the Leukopenia entry is given as “Grade III 4%” (Grade III) and “Grade IV 1%” (Grade IV).

Take `Cn1nnc2c(C(N)=O)ncn2c1=O` [Temozolomide]: where the note is “Grade III-IV”, the “Anemia Grade III-IV” value is recorded as “Anemia Grade III-IV 1%”, the Asthenia entry is “Asthenia 6%”, the Fatigue result is “Fatigue 5%” and the Fever entry is recorded as “Fever 2%”. Further, where the note is “Grade III-IV”, the Headache entry is given as “Headache 6%”, the Nausea result was “Nausea 10%”, the Thrombocytopenia result was “Thrombocytopenia 6%” and the Vomiting entry was “Vomiting 6%”. Besides, where the note is “grade not given”, the Leukopenia entry is on record as “Leukopenia 2%” and the Neutropenia result is listed as “Neutropenia 2%”. Further, under setting [1], the Fever entry is reported as “Fever 2%”, the Headache entry is listed as “Headache 6%”, the Thrombocytopenia entry is on record as “Thrombocytopenia 7%” and the Vomiting result is given as “Vomiting 5%”. Under setting [2], the “Anemia Grade III-IV” value is reported as “Anemia Grade III-IV 2%”, the “Asthenia (Grade III)” value is given as “Asthenia (Grade III) 3%”, the “Constipation (Grade III)” value was “(Grade III) 3%” and the “Fatigue (Grade III)” value was “Fatigue (Grade III) 3%”. For the same molecule, under setting [2], the “Nausea (Grade III)” value is “Nausea (Grade III) 4%”, the “Neutropenia Grade III” value is reported as “Grade III 1%”, the “Neutropenia Grade IV” value is listed as “Grade IV 2%” and the “Pain (Grade III)” value was “Pain (Grade III) 7%”.

As to `CCC1=C[C@@H]2CN(C1)Cc1c([nH]c3ccccc13)[C@@](C(=O)OC)(c1cc3c(cc1OC)N(C)[C@H]1[C@@](O)(C(=O)OC)[C@H](OC(C)=O)[C@]4(CC)C=CCN5CC[C@]31[C@@H]54)C2` [Vinorelbine], for the setting “human, in vivo, iv”, the “Anemia Grade III-IV” value is on record as “Anemia Grade III-IV 5%”, the Constipation entry is recorded as “Constipation 3%”, the Diarrhea is given as 4% and the Neurologic result is listed as “Neurologic 9%”. Moreover, for the setting “human, in vivo, iv”, the Neuropathy entry is listed as “Neuropathy 1%”, the “Neutropenic Infection” value is below 1%, the “Neutropenic Sepsis” value is “Neutropenic Sepsis 3%” and the Stomatitis result is given as “Stomatitis <1%”. In addition, the Thrombocytopenia result (human, in vivo, iv) is “Thrombocytopenia 1%”.

With `CC(=O)O[C@H]1C(=O)[C@@]2(C)[C@H]([C@H](OC(=O)c3ccccc3)[C@]3(O)C[C@H](OC(=O)[C@H](O)[C@@H](NC(=O)c4ccccc4)c4ccccc4)C(C)=C1C3(C)C)[C@]1(OC(C)=O)CO[C@@H]1C[C@@H]2O` [Paclitaxel], under “human, in vivo, iv”, the “Increased AST” value was “Increased AST 5%” and the “Leukopenia/Neutropenia Toxicity” value is “Grade III-IV 23%”.

As to `O=C1CCC(N2C(=O)c3ccccc3C2=O)C(=O)N1` (stereo not shown) [Thalidomide], for the setting “human, in vivo”, the “Anemia Grade III-IV” value is listed as 3.6% and the Thrombocytopenia entry is recorded as “Thrombocytopenia 3.6%”.

As to `N.N.[Cl][Pt][Cl]` [Cisplatin], under “Grade III-IV”, the “Anemia Grade III-IV” value is listed as 11%, the Cardiovascular entry is on record as “Cardiovascular 2%”, the Leukopenia result is recorded as “Grade III-IV 7%” and the Neurologic result was “Neurologic 11%”. Moreover, where the note is “Grade III-IV”, the “Neutropenic Fever” value is given as “Neutropenic Fever <1%” and the Renal result is reported as “Renal 4%”. The Leukopenia entry (Grade III) is recorded as “Grade III 18%”. In addition, for the setting “Grade IV”, the Leukopenia result is “Grade IV 3%”. In addition, the “Hearing Loss (clinical)” value (human, in vivo) is 12%.
